In patent US20240368145A1, “METHODS FOR TREATING CANCER” (IMMUNIC AG, priority 2021, published 2024):
One block for each compound: values may come before it.

Legend:
Assay type in all cases: cell-based
KLK3 mRNA = assay: Expression of AR target genes (qRT-PCR) in 22Rv1: KLK3; conditions: 22Rv1, 1 μM, 48h; relative to vehicle control (DMSO)
Experimental: (§1) The prostate cancer cell line 22Rv1 was treated for 48h with 1 μM Example compound 1, 1/1, 2/1, 2/2, 2/3, 2/4, 2/5, 2/6, 2/7, 2/8, 2/9 and 2/10 and reference compounds SR2211 and XY018. RNA was extracted using the RNA isolation kit XS (Macherey-Nagel) and following the manufacture's manual. RNA quantity was measured with the Nanodrop before reverse transcription using Superscript II (Invitrogen #100004925). For the quantitative real-time PCR with SYBR-Green (Qiagen #204074), the following primers were used:
(§2) qRT-PCR was performed using SYBR-Green (Qiagen #204074) reagents in a PCR cycler (Gorbett Research) Rotor Gene RG3000 with the following program: denaturation for 5′ at 95° C.; 40 cycles of 20″ at 95° C. and 15″ at 60° C.″ and at the end of the last cycle, the melting temperature of the products was determined by gradually increasing from 60° C. to 99° C. CT values from all samples were normalized to reference (housekeeping) genes using the mean CT value of the GAPDH and YWHAZ (reference genes). Next the values are put relative to the untreated control (vehicle/DMSO).

NKX3.1 mRNA = assay: Expression of AR target genes (qRT-PCR) in 22Rv1: NKX3.1; conditions: Homo sapiens; 22Rv1, 1 μM, 48h; relative to vehicle control (DMSO)
Experimental: as §1, §2

NCIH929 (MM) = assay: Oncotest inhibition of viability, NCIH929; conditions: Homo sapiens, NCI-H929; MM cell line NCIH929; read-out: IC50 range
MOLT4 (ALL) = assay: Oncotest inhibition of viability, MOLT4; conditions: Homo sapiens, MOLT-4; ALL cell line MOLT4; read-out: IC50 range
OCIAML2 (AML) = assay: Oncotest inhibition of viability, OCIAML2; conditions: Homo sapiens, OCI-AML2; AML cell line OCIAML2; read-out: IC50 range
MEG01 (CML) = assay: Oncotest inhibition of viability, MEG01; conditions: Homo sapiens, MEG-01; CML cell line MEG01; read-out: IC50 range
U937 (NHL) = assay: Oncotest inhibition of viability, U937; conditions: Homo sapiens, U-937; NHL cell line U937; read-out: IC50 range
IM9 (MM) = assay: Oncotest inhibition of viability, IM9; conditions: MM cell line IM9; read-out: IC50 range
MYLA (NHL) = assay: Oncotest inhibition of viability, MYLA; conditions: NHL cell line MYLA; read-out: IC50 range
MV411 (AML) = assay: Oncotest inhibition of viability, MV411; conditions: Homo sapiens, MV4-11; AML cell line MV411; read-out: IC50 range
HL60 (AML) = assay: Oncotest inhibition of viability, HL60; conditions: Homo sapiens, HL-60; AML cell line HL60; read-out: IC50 range
CCRFCEM/VCR (ALL) = assay: Oncotest inhibition of viability, CCRFCEM/VCR; conditions: Homo sapiens, CCRF-CEM; ALL cell line CCRFCEM/VCR; read-out: IC50 range
CCRFCEM (ALL) = assay: Oncotest inhibition of viability, CCRFCEM; conditions: Homo sapiens, CCRF-CEM; ALL cell line CCRFCEM; read-out: IC50 range
JURLMK1 (CML) = assay: Oncotest inhibition of viability, JURLMK1; conditions: CML cell line JURLMK1; read-out: IC50 range
HUT78 (NHL) = assay: Oncotest inhibition of viability, HUT78; conditions: Homo sapiens; NHL cell line HUT78; read-out: IC50 range
KG1 (AML) = assay: Oncotest inhibition of viability, KG1; conditions: AML cell line KG1; read-out: IC50 range
K562 (CML) = assay: Oncotest inhibition of viability, K562; conditions: Homo sapiens; CML cell line K562; read-out: IC50 range
JURKAT (ALL) = assay: Oncotest inhibition of viability, JURKAT; conditions: Homo sapiens; ALL cell line JURKAT; read-out: IC50 range
[1] = tested on: 24 different hematological cell lines; assay: Inhibition of viability in 24 different hematological cell lines (mean); conditions: mean over 24 different hematological cell lines; read-out: geometrical mean IC50, inhibition of viability
RAJI (NHL) = assay: Oncotest inhibition of viability, RAJI; conditions: Homo sapiens; NHL cell line RAJI; read-out: IC50 range
PL21 (AML) = assay: Oncotest inhibition of viability, PL21; conditions: PL-21; AML cell line PL21; read-out: IC50 range
KCL22 (CML) = assay: Oncotest inhibition of viability, KCL22; conditions: Homo sapiens, KCL-22; CML cell line KCL22; read-out: IC50 range

SMILES: CC(C)(O)CCn1ncc(-c2onc(-c3c(F)cccc3Cl)c2-c2ncccn2)c1C(F)(F)F [2/8]
- KLK3 mRNA expression (KLK3 mRNA): 1.152
- mrna remaining at 1 µM (NKX3.1 mRNA): 29.3%

- IC50 (MOLT4 (ALL)): < 10 nM
- IC50 (U937 (NHL)): 10 to 100 nM
- IC50 (MV411 (AML)): < 10 nM
- IC50 (HL60 (AML)): < 10 nM
- IC50 (CCRFCEM/VCR (ALL)): 10 to 100 nM
- IC50 (CCRFCEM (ALL)): 10 to 100 nM
- IC50 (K562 (CML)): ≥ 1000 nM
- IC50 (JURKAT (ALL)): < 10 nM
- IC50 (RAJI (NHL)): < 10 nM
SMILES: COC(=O)c1c(-c2c(F)cccc2Cl)noc1-c1cnn(-c2cccc(Cl)c2)c1C(F)(F)F [Example 1, Methyl 3-(2-chloro-6-fluorophenyl)-5-(1-(3-chlorophenyl)-5-(trifluoromethyl)-1H-pyrazol-4-yl)isoxazole-4-carboxylate]
- IC50 (NCIH929 (MM)): < 10 nM
- IC50 (OCIAML2 (AML)): 10 to 100 nM
- IC50 (MEG01 (CML)): ≥ 1000 nM
- IC50 (IM9 (MM)): < 10 nM
- IC50 (MYLA (NHL)): 100 to 1000 nM
- IC50 (JURLMK1 (CML)): < 10 nM
- IC50 (HUT78 (NHL)): < 10 nM
- IC50 (KG1 (AML)): < 10 nM
- IC50 [1]: < 25 nM
- IC50 (PL21 (AML)): 100 to 1000 nM
- IC50 (KCL22 (CML)): 10 to 100 nM
